Experimental findings from patent EP0477107B1, “Steroids contained in cyclodextrins” (Laboratoires BESINS ISCOVESCO Société anonyme dite :, priority 1990, dated 1992) are described below.

A short description of the series: Saturation solubility of steroids in water and in aqueous cyclodextrin solutions (25°, 72 h stirring, filtration, assay of supernatant). Type of series: physicochemical. On the procedure: On réalise des solutions de bétacyclodextrines à différentes concentrations de 0 à 5mM. A ces différentes solutions, on ajoute de la prégnane-5-béta-ol-3alpha-one-20 par pincées et ce jusqu'à apparition d'un précipité. On met sous agitation magnétique à 25° pendant 72 heures en prenant soin de vérifier à intervalles réguliers qu'il y a toujours saturation en stéroïdes. Au bout de 72 heures, on filtre les solutions ainsi réalisées et on dose le surnageant. Les résultats obtenus font l'objet de la courbe de la figure 1.
Excepté la concentration en ladite cyclodextrine qui varie de 0 à 32mM, on procède selon le même protocole qu'à l'exemple 1; les résultats sont illustrés par la courbe de la figure 2.
On procède selon le même protocole qu'à l'exemple 1. Les résultats sont représentés par la courbe de la figure 3.
On travaille selon les mêmes conditions qu'à l'exemple 1. Les résultats obtenus sont schématisés par la courbe de la figure 4.
On suit encore le même protocole qu'à l'exemple 1 sauf en ce que la concentration en bétacyclodextrine varie de 0 à 4mM et les résultats font l'objet de la courbe de la figure 5.
Ici encore on suit le même protocole qu'à l'exemple 1 sauf en ce que la concentration en hydroxypropybéta-cyclodextrine varie de 0 à 32mM et les résultats sont représentés par la courbe de la figure 6.

Converted amounts (≈) assume the structure as drawn. Like-named read-outs stand apart in the source and are kept apart here.

Turning to `CC(=O)[C@H]1CC[C@H]2[C@@H]3CC[C@@H]4C[C@H](O)CC[C@]4(C)[C@H]3CC[C@]12C` [Prégnanolone, prégnanol-3alpha-one-20], the solubility at 72 h by setting is: (water + betacyclodextrin, read-out: SOLUBILITE EN GRAMMES PAR LITRE dans eau + bétacyclodextrine) 440 µg/mL; (water + hydroxypropylbetacyclodextrin, optimal solubility read from the curves at the adequate hydroxypropylbétacyclodextrine concentration (up to 32mM), 25°, 72 h, read-out: SOLUBILITE EN GRAMMES PAR LITRE dans eau + hydroxypropylbétacyclodextrine) 3000 µg/mL; (water without cyclodextrin, 25°, 72 h, read-out: SOLUBILITE EN GRAMMES PAR LITRE dans l'eau) 5 µg/mL (≈ 15.7 µM).
Regarding “prégnane-diol-3,20 [Dihydroprogestérone]”, the “SOLUBILITE EN GRAMMES PAR LITRE dans eau + bétacyclodextrine” value (optimal solubility read from the curves at the adequate bétacyclodextrine concentration (0 to 5mM; 0 to 4mM for dihydro-4-progestérone), 25°, 72 h) is 0,06 GRAMMES PAR LITRE. Besides, the “SOLUBILITE EN GRAMMES PAR LITRE dans eau + hydroxypropylbétacyclodextrine” value (optimal solubility read from the curves at the adequate hydroxypropylbétacyclodextrine concentration (up to 32mM), 25°, 72 h) is given as 1,4 GRAMMES PAR LITRE. For the same molecule, the “SOLUBILITE EN GRAMMES PAR LITRE dans l'eau” value (water without cyclodextrin, 25°, 72 h) is recorded as 0,005 GRAMMES PAR LITRE.
